Laboratory results taken from ChEMBL document CHEMBL1201862, “PubChem BioAssay data set” (2004).
Calls of active or inactive are those of the source. Peptide text beside a SMILES is read from it. * marks the point of attachment. Boc = CC(C)(C)OC(=O)*

What was measured:
[1] = biological target: T1, Corticotropin-releasing factor receptor 2/Corticotropin-releasing factor-binding protein (Homo sapiens, UniProt P24387+Q13324); assay: activators of CRF receptor 2 with binding protein – uHTS hits, confirmation (AID 602473); format: functional; details: read-out: EC50_Mean
T1 sequence (Q13324 whole entry): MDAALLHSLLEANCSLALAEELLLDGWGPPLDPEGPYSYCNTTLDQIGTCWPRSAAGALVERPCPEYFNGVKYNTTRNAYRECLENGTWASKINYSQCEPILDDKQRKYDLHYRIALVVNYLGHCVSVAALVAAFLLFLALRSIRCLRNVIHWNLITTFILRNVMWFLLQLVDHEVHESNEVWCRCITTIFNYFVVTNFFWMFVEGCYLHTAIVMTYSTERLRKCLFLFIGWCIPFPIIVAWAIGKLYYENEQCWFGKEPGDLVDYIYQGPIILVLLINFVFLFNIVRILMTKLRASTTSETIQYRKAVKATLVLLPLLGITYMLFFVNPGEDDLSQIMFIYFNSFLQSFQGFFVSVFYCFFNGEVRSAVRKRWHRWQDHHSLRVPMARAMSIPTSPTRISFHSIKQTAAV
T1 sequence (P24387 whole entry): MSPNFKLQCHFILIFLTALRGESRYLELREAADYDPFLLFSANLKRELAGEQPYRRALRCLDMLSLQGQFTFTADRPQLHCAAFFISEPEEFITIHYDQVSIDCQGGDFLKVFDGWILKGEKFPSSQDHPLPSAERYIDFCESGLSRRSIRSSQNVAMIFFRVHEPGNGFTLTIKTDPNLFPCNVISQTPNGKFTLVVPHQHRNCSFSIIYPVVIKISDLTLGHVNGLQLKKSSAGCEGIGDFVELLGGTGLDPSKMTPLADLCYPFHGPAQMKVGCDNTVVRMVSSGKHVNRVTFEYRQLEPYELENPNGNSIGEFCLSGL

[2] = inhibitors of firefly luciferase expression or activity, dose response, H4 neuroglioma cells, luminescence (AID 1990); format: functional, cell-based
[3] = Luminescence Cell-Based Dose Response HTS to Identify Inhibitors of 5'UTR Stem-Loop Driven Prion Protein mRNA Translation in H4 Neuroglioblastoma Cells. [Related pubchem assays: 1827 (Project Summary), 1813 (Primary HTS)]; format: functional
[4] = inhibitors of SNCA 5'UTR-driven reporter translation, confirmation, H4 neuroglioma cells, luminescence (AID 1988); format: functional, cell-based
[5] = biological target: T1, Corticotropin-releasing factor receptor 2/Corticotropin-releasing factor-binding protein; assay: Dose Response confirmation of uHTS hits for small molecule antagonists of the CRF-binding protein and CRF-R2 receptor complex.; format: functional; details: read-out: IC50_Mean
Cytochrome P450 1A2 = biological target: T2, Cytochrome P450 1A2 (Homo sapiens, UniProt P05177);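 further: PubChem cytochrome P450 panel assay, CYP1A2 panel member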
T2 sequence (P05177 whole entry): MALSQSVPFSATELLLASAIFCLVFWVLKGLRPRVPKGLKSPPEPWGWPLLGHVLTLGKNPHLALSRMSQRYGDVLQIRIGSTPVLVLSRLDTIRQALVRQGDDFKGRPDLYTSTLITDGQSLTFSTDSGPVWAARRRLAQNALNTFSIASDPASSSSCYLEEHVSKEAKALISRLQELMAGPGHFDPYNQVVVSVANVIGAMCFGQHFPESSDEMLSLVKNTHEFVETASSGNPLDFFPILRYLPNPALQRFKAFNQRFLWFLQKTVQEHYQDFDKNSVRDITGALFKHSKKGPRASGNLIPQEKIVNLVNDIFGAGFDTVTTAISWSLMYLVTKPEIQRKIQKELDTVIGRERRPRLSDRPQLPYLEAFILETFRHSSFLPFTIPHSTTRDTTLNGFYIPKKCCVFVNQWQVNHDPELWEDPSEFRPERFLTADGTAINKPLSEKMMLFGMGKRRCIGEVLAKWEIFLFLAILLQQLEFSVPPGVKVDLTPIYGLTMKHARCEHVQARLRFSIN

Cytochrome P450 2C9 = Cytochrome P450 2C9 (Homo sapiens, UniProt P11712)
Cytochrome P450 2C19 = Cytochrome P450 2C19 (Homo sapiens, UniProt P33261); assay: Cytochrome panel assay with activity outcomes. Panel member name: p450-cyp2c19 Compounds with AC50 equal or less than 10 uM are considered active; format: functional; details: read-out: AC50
Cytochrome P450 3A4 = Cytochrome P450 3A4 (Homo sapiens, UniProt P08684);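 further: CYP3A4 tested as one member of a cytochrome P450 panel screen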
[6] = test system: Streptococcus sp. 'group A'; assay: growth inhibition of control SK(-) GAS strain, dose response, counter-screen for streptokinase expression inhibitor project, luminescence, kanamycin, BacTiterGlo, confirmation (AID 1900); format: functional, organism-based
Streptokinase A = biological target: T3, Streptokinase A (Streptococcus pyogenes serotype M1, UniProt P10520); assay: S. pyogenes streptokinase expression inhibitors, potency, dose response, plasminogen activation absorbance, OD405 (AID 1914); format: functional, Streptococcus pyogenes M1 GAS;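 further: secreted streptokinase activity via plasminogen activation per viability signal from cell pellet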
T3 sequence (P10520 whole entry): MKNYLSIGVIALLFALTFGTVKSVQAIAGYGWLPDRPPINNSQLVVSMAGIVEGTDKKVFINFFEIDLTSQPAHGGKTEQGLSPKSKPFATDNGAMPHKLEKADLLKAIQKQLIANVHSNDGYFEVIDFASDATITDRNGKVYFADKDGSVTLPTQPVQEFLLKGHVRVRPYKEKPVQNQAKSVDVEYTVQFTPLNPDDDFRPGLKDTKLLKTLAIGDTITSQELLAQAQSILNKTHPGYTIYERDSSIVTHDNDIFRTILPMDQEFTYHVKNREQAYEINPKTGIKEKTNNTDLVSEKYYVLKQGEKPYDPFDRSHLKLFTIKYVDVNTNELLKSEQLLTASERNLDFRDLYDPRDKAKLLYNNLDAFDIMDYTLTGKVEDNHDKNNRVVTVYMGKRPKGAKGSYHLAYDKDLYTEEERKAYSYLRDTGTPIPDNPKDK

Streptococcus = assay: Group A Streptococcus viability loss, dose response, counter-screen for streptokinase expression inhibitor project, luminescence, BacTiterGlo (AID 1915); format: functional, organism-based;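 further: potency for reduction of bacterial viability or growth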
[7] = inhibitors of intracellular T. cruzi replication, confirmation, NIH3T3 host cells, beta-gal luminescence (AID 2044); format: functional, cell-based;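 further: intracellular parasites grown in NIH/3T3 mouse fibroblasts as host cells; luminescent beta-galactosidase reporter signal from transgenic T. cruzi replicating inside host cells; inhibitors lower the luminescence signal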
[8] = cytotoxicity toward NIH3T3 fibroblasts, dose response, counter-screen, cell-based, ATP luminescence, mouse fibroblasts (AID 2010); format: functional;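 further: cells exposed to compound for about 90 hours before reading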
H4 = assay: Luminescence Cell-Based Dose Response HTS to Identify Activators of 5'UTR Stem-Loop Driven Prion Protein mRNA Translation in H4 Neuroglioblastoma Cells. [Related pubchem assays: 1829 (Project Summary), 1814 (Primary HTS)]; format: functional; details: Homo sapiens

Chain of Cytochrome P450 2C9 (P11712 whole entry): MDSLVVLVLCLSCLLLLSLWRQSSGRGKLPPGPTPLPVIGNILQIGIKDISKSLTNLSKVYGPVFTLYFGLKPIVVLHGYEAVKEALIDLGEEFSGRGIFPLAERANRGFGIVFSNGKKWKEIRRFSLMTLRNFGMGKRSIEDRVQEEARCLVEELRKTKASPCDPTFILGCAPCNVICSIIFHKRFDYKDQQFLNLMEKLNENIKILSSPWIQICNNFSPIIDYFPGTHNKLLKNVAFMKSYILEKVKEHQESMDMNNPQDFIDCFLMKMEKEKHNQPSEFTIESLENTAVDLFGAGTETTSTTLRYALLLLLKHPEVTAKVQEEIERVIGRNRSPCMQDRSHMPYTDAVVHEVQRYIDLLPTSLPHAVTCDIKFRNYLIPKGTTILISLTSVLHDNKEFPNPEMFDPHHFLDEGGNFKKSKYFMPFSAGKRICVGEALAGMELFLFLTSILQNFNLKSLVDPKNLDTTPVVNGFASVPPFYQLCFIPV
Chain of Cytochrome P450 3A4 (P08684 whole entry): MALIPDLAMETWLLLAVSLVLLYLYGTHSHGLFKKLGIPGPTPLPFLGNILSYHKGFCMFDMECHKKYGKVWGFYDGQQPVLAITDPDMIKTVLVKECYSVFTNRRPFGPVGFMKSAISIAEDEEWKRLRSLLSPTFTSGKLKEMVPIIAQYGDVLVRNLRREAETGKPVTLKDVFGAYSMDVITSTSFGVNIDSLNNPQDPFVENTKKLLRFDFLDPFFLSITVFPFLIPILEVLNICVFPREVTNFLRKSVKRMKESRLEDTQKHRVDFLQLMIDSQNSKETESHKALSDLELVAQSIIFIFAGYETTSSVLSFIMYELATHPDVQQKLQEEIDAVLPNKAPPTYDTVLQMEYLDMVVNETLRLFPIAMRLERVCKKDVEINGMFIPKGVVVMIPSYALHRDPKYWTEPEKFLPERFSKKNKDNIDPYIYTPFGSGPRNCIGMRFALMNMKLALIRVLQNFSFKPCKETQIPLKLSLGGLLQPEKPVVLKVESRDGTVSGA
Chain of Cytochrome P450 2C19 (P33261 whole entry): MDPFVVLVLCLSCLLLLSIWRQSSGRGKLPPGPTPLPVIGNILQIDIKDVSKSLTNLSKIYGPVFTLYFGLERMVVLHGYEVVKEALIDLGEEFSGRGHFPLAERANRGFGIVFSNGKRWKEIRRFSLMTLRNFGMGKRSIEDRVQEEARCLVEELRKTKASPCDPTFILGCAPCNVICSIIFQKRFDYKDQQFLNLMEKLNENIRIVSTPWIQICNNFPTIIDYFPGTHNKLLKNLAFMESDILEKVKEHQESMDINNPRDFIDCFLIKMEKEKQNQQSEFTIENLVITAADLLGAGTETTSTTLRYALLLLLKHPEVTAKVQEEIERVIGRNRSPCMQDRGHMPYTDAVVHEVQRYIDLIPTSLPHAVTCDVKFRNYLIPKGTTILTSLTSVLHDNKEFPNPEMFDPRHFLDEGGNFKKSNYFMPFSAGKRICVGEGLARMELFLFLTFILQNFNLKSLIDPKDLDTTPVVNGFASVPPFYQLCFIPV

Row | SMILES | EC50 [1] | IC50 [5] | AC50 (Cytochrome P450 1A2) | other results
1 | CCC(C(=O)Nc1ccc(C(C)C)cc1)c1ccccc1 (stereo unspecified) | 6.87 µM (active) |  |  | 
2 | CCc1ccc(/C=N/NC(=O)c2cc(C3CC3)nc3ccc(Br)cc23)s1 |  |  |  | EC50 [2]: > 120 µM (not active); EC50 [3]: 9.75 µM (active); EC50 [4]: 6.9 µM (active)
3 | O=C(NNC(=O)c1oc2ccccc2c1-n1cccc1)c1ccco1 | > 53 µM (inactive) | > 47.1 µM (inactive) |  | 
4 | N#CC1=C(N)OC2=C(C(=O)CCC2)C12CCC1(CC2)OCCO1 |  |  | 25.1 µM (inconclusive) | 
5 | O=C1NC(=O)C(CCc2ccncc2)(Cc2cccc(Cl)c2Cl)C(=O)N1c1ccc(Br)cc1 (stereo unspecified) |  |  |  | EC50 [2]: 13.2 µM (active); EC50 [3]: 18.9 µM (active); EC50 [4]: 13.9 µM (active)
6 | Cc1cc(S(=O)(=O)c2cc3ccc(O)c(C)c3oc2=O)ccc1F | 5.8 µM (active) |  |  | 
7 | O=C(O)CCNC(=O)OCC1c2ccccc2-c2ccccc21 | > 53 µM (inactive) | > 47.1 µM (inactive) |  | 
8 | CN(Cc1cc2ccccc2[nH]c1=O)S(C)(=O)=O |  |  | 28.2 µM (inconclusive) | 
9 | O=C(c1ccc(F)cc1)C1CCN(Cc2ccccc2F)CC1 | > 53 µM (inactive) | > 47.1 µM (inactive) |  | 
10 | COc1ccc(N(CC(=O)NCCc2ccc(OC)c(OC)c2)S(=O)(=O)c2c(C)noc2C)cc1 | > 53 µM (inactive) | > 47.1 µM (inactive) |  | 
11 | COc1ccc(CNC(=O)Nc2cccs2)cc1OC | > 53 µM (inactive) | > 47.1 µM (inactive) |  | AC50 (Cytochrome P450 2C9): 39.8 µM (inconclusive)
12 | Cc1ccc(OCCC(=O)O)cc1 | > 53 µM (inactive) | > 47.1 µM (inactive) |  | 
13 | N[C@H](C(=O)O)[C@@H]1[C@@H](C(=O)O)C1(F)F |  |  | 31.6 µM (inconclusive) | 
14 | NC(=O)Nc1n[nH]c(-c2ccccc2)n1 |  |  | 3.16 µM (inconclusive) | 
15 | Nc1cc(N)nc(SCC(=O)NNC(=O)c2ccc(Cl)cc2)n1 |  |  | 15.8 µM (inconclusive) | AC50 (Cytochrome P450 2C19): 39.8 µM (inconclusive); AC50 (Cytochrome P450 3A4): 14.1 µM (inconclusive); AC50 (Cytochrome P450 2C9): 28.2 µM (inconclusive)
16 | CCn1c(COc2ccc(C)cc2)nnc1SCc1ccc(C#N)cc1 |  |  | 28.2 µM (inconclusive) | EC50 [6]: > 150 µM (not active); EC50 (Streptokinase A): > 150 µM (not active); EC50 (Streptococcus): > 150 µM (not active)
17 | COc1ccc(CNC(=O)CN(C)S(=O)(=O)c2ccc3c(c2)n(C)c(=O)c(=O)n3C)cc1 | > 53 µM (inactive) | > 47.1 µM (inactive) |  | 
18 | O=C1c2ccccc2-c2ccc(NC(=O)[C@H]3CCCC[C@@H]3C(=O)O)cc21 |  |  | 1 µM (inconclusive) | 

Row | SMILES | EC50 [1] | IC50 [5] | AC50 (Cytochrome P450 1A2) | other results
19 | c1cncc(-c2cncnc2NC2CCNCC2)c1 |  |  | 12.6 µM (inconclusive) | 
20 | CCOc1ccc(OCCOCCN2CCc3ccccc3C2)cc1 |  |  | 20 µM (inconclusive) | EC50 [7]: 0.124 µM (active); EC50 [8]: 21 µM (active); AC50 (Cytochrome P450 3A4): 25.1 µM (inconclusive); AC50 (Cytochrome P450 2C9): 11.2 µM (inconclusive)
21 | Clc1ccc(CSc2ncnc3c2ncn3[C@@H]2CCCCO2)cc1 |  |  | 1.58 µM (inconclusive) | 
22 | O=S(=O)(N=C(Nc1ccccn1)c1ccccc1)c1ccccc1 |  |  | 14.1 µM (inconclusive) | AC50 (Cytochrome P450 2C19): 15.8 µM (inconclusive); AC50 (Cytochrome P450 3A4): 28.2 µM (inconclusive)
23 | Cc1oc2c(C)c3oc(=O)c(CCC(=O)N4C[C@H]5C[C@@H](C4)c4cccc(=O)n4C5)c(C)c3cc2c1C |  |  |  | EC50 [2]: 65.1 µM (active); EC50 [3]: > 120 µM (not active); EC50 [4]: 13.5 µM (active)
24 | c1ccc(-c2csc(Nc3nc(N4CCOCC4)nc(N4CCOCC4)n3)n2)cc1 |  |  | 5.62 µM (inconclusive) | EC50 [7]: 0.104 µM (active); EC50 [8]: > 30 µM (not active); AC50 (Cytochrome P450 2C19): 5.62 µM (inconclusive); AC50 (Cytochrome P450 3A4): 10 µM (inconclusive); AC50 (Cytochrome P450 2C9): 3.16 µM (inconclusive)
25 | CCN(CC)c1ccc(NC(=O)CN2CCN(c3ccccc3F)CC2)cc1 |  |  | 28.2 µM (inconclusive) | AC50 (Cytochrome P450 3A4): 15.8 µM (inconclusive)
26 | CCc1cc(C(=O)OC)c(NC(=O)CCCC(=O)O)s1 |  |  | 25.1 µM (inconclusive) | AC50 (Cytochrome P450 2C9): 28.2 µM (inconclusive)
27 | CC(C)C(NC(=O)OC(C)(C)C)C(=O)N1CCCC1C(=O)NC(Cc1ccccc1)C(N)=O (stereo not drawn) (Boc-Val-Pro-Phe-NH2; configuration not given here) |  |  | 2 µM (inconclusive) | AC50 (Cytochrome P450 2C19): 1.12 µM (inconclusive); AC50 (Cytochrome P450 3A4): 15.8 µM (inconclusive); AC50 (Cytochrome P450 2C9): 31.6 µM (inconclusive)
28 | COc1cc2ccccc2cc1C(=O)Nc1ccc(N2CCN(C)CC2)cc1 |  |  |  | EC50 (H4): > 120 µM (not active)
29 | CCc1c(C)sc(NC(=O)CSc2nc3c(c(C(F)(F)F)n2)CCc2ccccc2-3)c1C#N |  |  |  | EC50 [2]: > 120 µM (not active); EC50 [3]: > 120 µM (not active); EC50 [4]: 18.8 µM (active)
30 | CC(=O)c1c(N2CCCCC2)nc(=S)n(Cc2ccccc2)c1C | > 53 µM (inactive) | > 47.1 µM (inactive) |  | 
31 | CC(C)(C)OC(=O)N1CCN(c2ccc(CNC(=O)c3ccc(Cl)cc3)cc2)CC1 | > 53 µM (inactive) | > 47.1 µM (inactive) |  | 
32 | Oc1cc(O)c2c(c1)O[C@H](c1ccc(O)c(O)c1)[C@@H](O)[C@@H]2c1c(O)cc(O)c2c1O[C@@H](c1ccc(O)c(O)c1)[C@H](O)C2 |  |  | 2.51 µM (inconclusive) | 
33 | CCCCCN(C(=O)CCC(=O)OCC(=O)c1c(C)cc(C)cc1C)c1c(N)n(CCCC)c(=O)[nH]c1=O | > 53 µM (inactive) | > 47.1 µM (inactive) |  | 
34 | Cc1cccc(N(C(=O)c2sc(C)nc2C)C(C(=O)NCC2CCCO2)c2ccccc2)c1 (stereo unspecified) | > 53 µM (inactive) | > 47.1 µM (inactive) |  | 
35 | O=C(COC(=O)c1cc2ccccc2cc1O)NC1CCCCC1 | > 53 µM (inactive) | > 47.1 µM (inactive) |  | 
36 | CCCOc1ccc(N2C(=O)CC(N3CCC(c4nc5ccccc5o4)CC3)C2=O)cc1 (stereo unspecified) |  |  |  | EC50 [2]: > 120 µM (not active); EC50 [3]: > 60 µM (not active); EC50 [4]: > 120 µM (not active)
